Calls of active or inactive are those of the source. The rule behind the calls is not given here.
Key:
[1] = molecular target: NACHT, LRR and PYD domains-containing protein 3 (Mus musculus) (UniProt Q8R4B8); assay: Inhibition of NLRP3 inflammasome priming in ICR mouse BMDM assessed as inhibition of NLRP3 expression in cell supernatant at 0.2 to 5 uM pretreated with compound for 1 hr followed by stimulation with LPS for 3 hrs and later incubated with ATP for 30 mins by western blot analysis; assay type: cell-based; conditions: dose 0.2-5 µM, time 4.5 hrs
[2] = tested on: Mus musculus; assay: (§1) Anti-inflammatory activity against LPS-stimulated acute lung injury C57BL/6 mouse model assessed as decrease in alveolar dilation in right lung at 1 to 10 mg/kg, ip treated for 3 days and on third day administered with LPS at 30 mins post-compound challenge and measured after 12 hrs by Hematoxylin-Eosin staining analysis; assay type: functional, organism-based; conditions: dose 1-10 mg/kg, time 3.5 day
[3] = molecular target: NACHT, LRR and PYD domains-containing protein 3 (Mus musculus) (UniProt Q8R4B8); assay: (§2) Inhibition of NLRP3 inflammasome activation in ICR mouse BMDM assessed as inhibition of LPS/ATP-stimulated caspase-1 expression in cell supernatant at 1 uM treated for 3 hrs with LPS followed by incubation with compound for 1 hr and later stimulated with ATP for 0.5 hrs by western blot analysis; assay type: cell-based; conditions: time 1.5 hrs
[4] = tested on: Mus musculus; assay: Anti-inflammatory activity against LPS-stimulated acute lung injury C57BL/6 mouse model assessed as decrease in IL-1 beta level in BALF at 0.1 to 1 mg/kg, ip treated for 3 days and on third day administered with LPS at 30 mins post-compound challenge and measured after 12 hrs by ELISA; assay type: functional, organism-based; conditions: dose 0.1-1 mg/kg, time 3.5 day
[5] = molecular target: NACHT, LRR and PYD domains-containing protein 3 (Homo sapiens, UniProt Q96P20); assay: Binding affinity to NLRP3 (unknown origin) by SPR assay
[6] = tested on: Mus musculus; assay: as §1, with “decrease in thickening of alveolar septa” for “decrease in alveolar dilation”, “of alveolar septa in right” for “in alveolar dilation in right”; assay type: functional, organism-based; conditions: dose 1-10 mg/kg, time 3.5 day
[7] = molecular target: NACHT, LRR and PYD domains-containing protein 3 (Mus musculus) (UniProt Q8R4B8); assay: Inhibition of NLRP3 inflammasome activation in ICR mouse BMDM assessed as inhibition of LPS/MSU-stimulated IL-1 beta secretion in cell supernatant at 1 uM treated for 3 hrs with LPS followed by incubation with compound for 1 hr and later stimulated with MSU for 4 hrs by ELISA; assay type: cell-based; conditions: time 5.0 hrs
[8] = molecular target: NACHT, LRR and PYD domains-containing protein 3 (Mus musculus) (UniProt Q8R4B8); assay: Inhibition of NLRP3 inflammasome priming in ICR mouse BMDM assessed as inhibition of TNF-alpha secretion in cell supernatant at 0.2 to 5 uM pretreated with compound for 1 hr followed by stimulation with LPS for 3 hrs and later incubated with ATP for 30 mins by ELISA; assay type: cell-based; conditions: dose 0.2-5 µM, time 4.5 hrs
[9] = molecular target: NACHT, LRR and PYD domains-containing protein 3 (Mus musculus) (UniProt Q8R4B8); assay: Inhibition of NLRP3 inflammasome priming in ICR mouse BMDM assessed as inhibition of ASC protein expression in cell lysate at 0.2 to 5 uM treated for 3 hrs with LPS followed by incubation with compound for 1 hr and later stimulated with ATP for 0.5 hrs by western blot analysis; assay type: subcellular; conditions: dose 0.2-5 µM, time 1.5 hrs
[10] = molecular target: NACHT, LRR and PYD domains-containing protein 3 (Mus musculus) (UniProt Q8R4B8); assay: as §2, with “LPS/nigericin-stimulated” for “LPS/ATP-stimulated”, “nigericin” for “ATP”; assay type: cell-based; conditions: time 1.5 hrs
[11] = molecular target: NACHT, LRR and PYD domains-containing protein 3 (Mus musculus) (UniProt Q8R4B8); assay: Inhibition of NLRP3 inflammasome priming in ICR mouse BMDM assessed as inhibition of pro-caspase-1 protein expression in cell lysate at 0.2 to 5 uM treated for 3 hrs with LPS followed by incubation with compound for 1 hr and later stimulated with ATP for 0.5 hrs by western blot analysis; assay type: subcellular; conditions: dose 0.2-5 µM, time 1.5 hrs
[12] = molecular target: NLR family CARD domain-containing protein 4 (Mus musculus) (UniProt Q3UP24); assay: Inhibition of NLRC4 inflammasome activation in ICR mouse BMDM assessed as inhibition of FLA-ST-stimulated IL-1 beta secretion in cell supernatant at 1 uM treated for 3 hrs with LPS followed by incubation with compound for 1 hr and later stimulated with FLA-ST for 2 hrs by ELISA; assay type: cell-based
[13] = molecular target: NACHT, LRR and PYD domains-containing protein 3 (Mus musculus) (UniProt Q8R4B8); assay: Inhibition of NLRP3 inflammasome priming in ICR mouse BMDM assessed as inhibition of pro-IL-1 beta protein expression in cell lysate at 1 uM treated for 3 hrs with LPS followed by incubation with compound for 1 hr and later stimulated with ATP for 0.5 hrs by western blot analysis; assay type: subcellular; conditions: time 1.5 hrs
[14] = molecular target: NACHT, LRR and PYD domains-containing protein 3 (Mus musculus) (UniProt Q8R4B8); assay: Inhibition of NLRP3 inflammasome priming in ICR mouse BMDM assessed as inhibition of pro-IL-1 beta expression in cell lysate at 1 uM treated for 3 hrs with LPS followed by incubation with compound for 1 hr and later stimulated with nigericin for 0.5 hrs by western blot analysis; assay type: subcellular; conditions: time 1.5 hrs
[15] = Cytotoxicity against ICR mouse BMDM assessed as reduction in cell viability incubated for 24 hrs by CCK8 assay; assay type: toxicity, cell-based; conditions: BMDM (bone marrow-derived macrophages)
[16] = tested on: Mus musculus; assay: Anti-inflammatory activity against LPS-stimulated acute lung injury C57BL/6 mouse model assessed as decrease in TNF-alpha level in BALF at 0.1 to 1 mg/kg, ip treated for 3 days and on third day administered with LPS at 30 mins post-compound challenge and measured after 12 hrs by ELISA; assay type: functional, organism-based; conditions: dose 0.1-1 mg/kg, time 3.5 day
[17] = molecular target: NACHT, LRR and PYD domains-containing protein 3 (Mus musculus) (UniProt Q8R4B8); assay: Inhibition of NLRP3 inflammasome priming in ICR mouse BMDM assessed as inhibition of pro-IL1 beta protein expression in cell lysate at 1 uM treated for 3 hrs with LPS followed by incubation with compound for 1 hr and later stimulated with MSU for 4 hrs by western blot analysis; assay type: subcellular; conditions: time 5.0 hrs
[18] = tested on: Mus musculus; assay: Anti-inflammatory activity against LPS-stimulated acute lung injury C57BL/6 mouse model assessed as decrease in TNF-alpha level in serum at 0.1 to 1 mg/kg, ip treated for 3 days and on third day administered with LPS at 30 mins post-compound challenge and measured after 12 hrs by ELISA; assay type: functional, organism-based; conditions: dose 0.1-1 mg/kg, time 3.5 day
[19] = molecular target: NACHT, LRR and PYD domains-containing protein 3 (Mus musculus) (UniProt Q8R4B8); assay: as §2, with “LPS/nigericin-stimulated IL-1 beta” for “LPS/ATP-stimulated caspase-1”, “nigericin” for “ATP”; assay type: cell-based; conditions: time 1.5 hrs
[20] = molecular target: NACHT, LRR and PYD domains-containing protein 3 (Mus musculus) (UniProt Q8R4B8); assay: Inhibition of NLRP3 inflammasome priming in ICR mouse BMDM assessed as inhibition of NLRP3 protein expression in cell lysate at 0.2 to 5 uM treated for 3 hrs with LPS followed by incubation with compound for 1 hr and later stimulated with ATP for 0.5 hrs by western blot analysis; assay type: subcellular; conditions: dose 0.2-5 µM, time 1.5 hrs
[21] = tested on: Mus musculus; assay: Anti-inflammatory activity against LPS-stimulated acute lung injury C57BL/6 mouse model assessed as decrease in IL-1 beta level in serum at 0.1 to 1 mg/kg, ip treated for 3 days and on third day administered with LPS at 30 mins post-compound challenge and measured after 12 hrs by ELISA; assay type: functional, organism-based; conditions: dose 0.1-1 mg/kg, time 3.5 day
[22] = molecular target: NACHT, LRR and PYD domains-containing protein 3 (Mus musculus) (UniProt Q8R4B8); assay: Inhibition of NLRP3 inflammasome activation in ICR mouse BMDM assessed as inhibition of LPS/ATP-stimulated IL-1 beta expression in cell supernatant treated for 3 hrs with LPS followed by incubation with compound for 1 hr and later stimulated with ATP for 0.5 hrs by western blot analysis; assay type: cell-based; conditions: dose 0.2-5 µM, time 1.5 hrs
[23] = tested on: Mus musculus; assay: Anti-inflammatory activity against LPS-stimulated acute lung injury C57BL/6 mouse model assessed as decrease in IL-6 level in serum at 0.1 to 1 mg/kg, ip treated for 3 days and on third day administered with LPS at 30 mins post-compound challenge and measured after 12 hrs by ELISA; assay type: functional, organism-based; conditions: dose 0.1-1 mg/kg, time 3.5 day
[24] = tested on: Mus musculus; assay: as §1, with “decrease in partial alveolar congestion” for “decrease in alveolar dilation”, “partial alveolar congestion in right” for “in alveolar dilation in right”; assay type: functional, organism-based; conditions: dose 1-10 mg/kg, time 3.5 day

NACHT, LRR and PYD domains-containing protein 3 (Mus musculus), sequence (Q8R4B8 whole entry, the tested form may be a part): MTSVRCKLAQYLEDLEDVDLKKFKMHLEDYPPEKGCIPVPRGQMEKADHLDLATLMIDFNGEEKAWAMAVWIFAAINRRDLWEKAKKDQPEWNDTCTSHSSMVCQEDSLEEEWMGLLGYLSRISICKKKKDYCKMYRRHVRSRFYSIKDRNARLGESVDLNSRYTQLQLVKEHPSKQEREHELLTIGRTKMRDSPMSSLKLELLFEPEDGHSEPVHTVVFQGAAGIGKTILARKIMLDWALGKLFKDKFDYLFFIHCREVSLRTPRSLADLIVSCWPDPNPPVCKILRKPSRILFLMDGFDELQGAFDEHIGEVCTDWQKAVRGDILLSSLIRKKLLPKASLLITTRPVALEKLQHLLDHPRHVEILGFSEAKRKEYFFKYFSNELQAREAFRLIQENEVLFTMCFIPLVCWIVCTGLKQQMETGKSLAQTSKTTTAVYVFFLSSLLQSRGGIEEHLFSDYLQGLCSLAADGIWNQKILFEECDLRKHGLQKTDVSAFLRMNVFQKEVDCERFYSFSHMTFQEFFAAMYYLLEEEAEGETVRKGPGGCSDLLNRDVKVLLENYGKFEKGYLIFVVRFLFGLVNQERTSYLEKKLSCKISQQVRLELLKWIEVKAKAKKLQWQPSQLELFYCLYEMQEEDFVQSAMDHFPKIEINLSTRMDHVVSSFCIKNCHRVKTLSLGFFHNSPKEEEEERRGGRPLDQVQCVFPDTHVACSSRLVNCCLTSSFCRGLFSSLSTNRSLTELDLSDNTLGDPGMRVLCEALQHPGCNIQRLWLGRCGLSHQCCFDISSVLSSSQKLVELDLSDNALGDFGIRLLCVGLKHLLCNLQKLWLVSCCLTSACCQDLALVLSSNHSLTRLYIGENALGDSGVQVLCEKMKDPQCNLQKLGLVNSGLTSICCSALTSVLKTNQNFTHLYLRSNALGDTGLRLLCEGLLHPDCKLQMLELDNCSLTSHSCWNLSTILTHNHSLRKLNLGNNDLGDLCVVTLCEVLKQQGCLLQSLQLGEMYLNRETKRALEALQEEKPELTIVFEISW
NLR family CARD domain-containing protein 4 (Mus musculus), sequence (Q3UP24 whole entry, the tested form may be a part): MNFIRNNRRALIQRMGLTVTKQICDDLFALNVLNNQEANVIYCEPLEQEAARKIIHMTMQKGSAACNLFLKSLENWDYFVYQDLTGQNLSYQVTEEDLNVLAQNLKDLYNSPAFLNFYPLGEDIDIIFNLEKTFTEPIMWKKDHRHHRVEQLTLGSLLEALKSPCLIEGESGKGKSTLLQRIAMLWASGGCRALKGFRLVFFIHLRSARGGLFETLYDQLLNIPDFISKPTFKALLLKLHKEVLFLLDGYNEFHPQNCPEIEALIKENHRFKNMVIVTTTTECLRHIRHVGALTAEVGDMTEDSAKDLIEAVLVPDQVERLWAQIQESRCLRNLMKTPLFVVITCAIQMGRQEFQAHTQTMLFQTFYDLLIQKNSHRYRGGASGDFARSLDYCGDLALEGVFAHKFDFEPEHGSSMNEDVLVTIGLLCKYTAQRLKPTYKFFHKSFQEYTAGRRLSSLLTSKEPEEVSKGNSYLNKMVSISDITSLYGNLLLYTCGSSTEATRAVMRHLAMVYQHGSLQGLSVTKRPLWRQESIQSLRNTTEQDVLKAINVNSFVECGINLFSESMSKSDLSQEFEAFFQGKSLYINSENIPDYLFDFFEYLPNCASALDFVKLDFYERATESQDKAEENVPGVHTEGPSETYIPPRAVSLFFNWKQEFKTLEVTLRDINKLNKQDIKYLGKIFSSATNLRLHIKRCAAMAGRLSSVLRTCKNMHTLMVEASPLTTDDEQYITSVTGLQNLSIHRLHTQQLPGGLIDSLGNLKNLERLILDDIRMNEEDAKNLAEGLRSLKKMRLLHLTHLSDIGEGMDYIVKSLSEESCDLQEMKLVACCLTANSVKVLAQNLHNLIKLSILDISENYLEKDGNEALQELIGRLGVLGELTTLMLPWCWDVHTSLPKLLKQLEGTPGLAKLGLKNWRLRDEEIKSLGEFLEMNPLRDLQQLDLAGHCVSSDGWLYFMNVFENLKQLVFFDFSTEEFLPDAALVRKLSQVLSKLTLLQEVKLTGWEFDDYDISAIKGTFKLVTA
NACHT, LRR and PYD domains-containing protein 3, sequence (Q96P20 whole entry, the tested form may be a part): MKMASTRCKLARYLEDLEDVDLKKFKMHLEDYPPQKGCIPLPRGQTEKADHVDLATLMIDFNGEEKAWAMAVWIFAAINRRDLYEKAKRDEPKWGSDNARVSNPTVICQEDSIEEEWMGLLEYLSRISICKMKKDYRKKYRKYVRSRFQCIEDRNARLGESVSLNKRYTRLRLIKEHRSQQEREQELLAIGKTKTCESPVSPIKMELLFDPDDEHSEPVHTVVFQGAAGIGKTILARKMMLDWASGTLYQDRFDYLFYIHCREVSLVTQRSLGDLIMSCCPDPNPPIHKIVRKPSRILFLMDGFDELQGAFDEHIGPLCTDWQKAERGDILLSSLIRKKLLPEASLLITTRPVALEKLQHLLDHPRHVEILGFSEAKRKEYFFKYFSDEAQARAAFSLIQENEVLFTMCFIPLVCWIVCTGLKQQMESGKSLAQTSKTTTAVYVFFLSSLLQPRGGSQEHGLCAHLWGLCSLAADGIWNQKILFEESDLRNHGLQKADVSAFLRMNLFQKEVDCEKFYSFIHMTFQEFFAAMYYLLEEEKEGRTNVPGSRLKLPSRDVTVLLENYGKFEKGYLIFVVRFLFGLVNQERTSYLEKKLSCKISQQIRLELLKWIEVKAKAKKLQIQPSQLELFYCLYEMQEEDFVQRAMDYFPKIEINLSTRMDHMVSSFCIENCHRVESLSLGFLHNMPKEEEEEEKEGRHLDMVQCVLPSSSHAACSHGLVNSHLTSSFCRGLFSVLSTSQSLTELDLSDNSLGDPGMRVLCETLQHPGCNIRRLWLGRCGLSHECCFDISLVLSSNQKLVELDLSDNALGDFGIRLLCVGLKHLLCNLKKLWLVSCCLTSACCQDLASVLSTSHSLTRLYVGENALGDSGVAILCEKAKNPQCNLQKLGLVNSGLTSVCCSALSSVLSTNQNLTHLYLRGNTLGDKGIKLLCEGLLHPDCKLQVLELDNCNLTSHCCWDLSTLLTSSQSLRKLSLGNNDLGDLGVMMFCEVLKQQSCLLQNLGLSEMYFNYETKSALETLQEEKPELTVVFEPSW

inhibition [1]: inactive
inhibition [3]: Active
Kd [5]: 5.17 µM
inhibition [7]: Active
inhibition [8]: inactive
inhibition [9]: inactive
inhibition [10]: Active
inhibition [11]: inactive
inhibition [12]: inactive
inhibition [13]: inactive
inhibition [14]: inactive
inhibition [17]: inactive
inhibition [19]: Active
inhibition [20]: inactive
inhibition [22]: Dose-Dependent Effect
Structure (SMILES): C=C1C(=O)[C@]23[C@H](OC(=O)Nc4ccc(F)cc4)[C@H]1CC[C@H]2[C@]12C=CCC(C)(C)[C@H]1[C@H](O)[C@@]3(O)OC2
Activity [2]: Active
Activity [4]: Dose-Dependent Effect
Activity [6]: Active
IC50 at 24 h [15]: > 10 µM
Activity [16]: Dose-Dependent Effect
Activity [18]: Dose-Dependent Effect
Activity [21]: Dose-Dependent Effect
Activity [23]: Dose-Dependent Effect
Activity [24]: Active

Reference: ChEMBL document CHEMBL6071152, “Design, synthesis, and biological evaluation of oridonin derivatives as novel NLRP3 inflammasome inhibitors for the treatment of acute lung injury” (Eur J Med Chem, 2024)
